{"source": "PubChem BioAssay AID602215", "about": "(Sanford-Burnham Center for Chemical Genomics, 2012)", "note": "Calls of active or inactive are those of the source.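 The calls were made as follows: active = IC50 of 20 µM or lower; inactive = the rest.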", "data": [{"tested_on": "HL-1 cardiomyocytes, H2O2 injury, ATP luminescence, 2 h", "test": "protection of HL-1 cardiomyocytes from peroxide injury, dose response, cell-based, ATP luminescence (AID 602215);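 also: potency is for protection so actives raise ATP signal against peroxide damage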", "values": [{"smiles": "N#Cc1c(-c2ccco2)cc(-c2cccnc2)nc1N", "IC50": "41.2 µM (inactive)"}, {"smiles": "COC(=O)c1cc2ccccn2c2c(C(=O)OC)c(C(=O)OC)cc1-2", "IC50": "> 79 µM (inactive)"}, {"smiles": "CC(=O)Nc1ccc(S(=O)(=O)N(Cc2cccnc2)Cc2cc3ccccc3[nH]c2=O)cc1", "IC50": "11.7 µM"}, {"smiles": "Cc1ccc(C=NNc2nc3c([nH]2)c(=O)n(C)c(=O)n3C)cc1", "IC50": "> 79 µM (inactive)"}, {"smiles": "CCOc1ccccc1NC(=O)c1oc2ccccc2c1NC(=O)C1CCCO1", "note": "(stereo not drawn)", "IC50": "> 79 µM (inactive)"}, {"smiles": "Cc1cc(C)c(C)c(S(=O)(=O)N2CCN(C(=O)c3cc(=O)[nH]c4ccccc34)CC2)c1C", "IC50": "18.9 µM"}, {"smiles": "COc1cc(/C=C(\\C#N)c2nc3ccc(C)cc3[nH]2)c([N+](=O)[O-])cc1OC", "IC50": "> 79 µM (inactive)"}, {"smiles": "CC(=O)c1ccc(-c2cnc3c(NC=O)cc(-c4cccc(C(=O)N(C)C)c4)cn23)cc1", "IC50": "12 µM"}, {"smiles": "Nc1c(C(=O)N/N=C/c2cccnc2)oc2nc(-c3ccco3)cc(-c3ccco3)c12", "IC50": "> 79 µM (inactive)"}, {"smiles": "COc1cc(OC)cc(C(=O)Nc2ccc(C(=O)Nc3ccccc3OC)cc2)c1", "IC50": "> 79 µM (inactive)"}, {"smiles": "COc1cc(-c2cc(NC(C)=O)c3ncc(-c4cc(OC)c(OC)c(OC)c4)n3c2)cc(OC)c1OC", "IC50": "1.48 µM"}, {"smiles": "Cc1ccc(C(C(=O)NCc2ccccc2)N(Cc2ccco2)C(=O)c2snc(C(N)=O)c2N)o1", "note": "(stereo not drawn)", "IC50": "> 79 µM (inactive)"}, {"smiles": "Cc1cccc(NC(=O)c2nc[nH]c2C(=O)NCCCCNC(=O)c2[nH]cnc2C(=O)Nc2cccc(C)c2)c1", "IC50": "> 79 µM (inactive)"}, {"smiles": "O=C(CN1CCN(c2ccccn2)CC1)Nc1ccc([N+](=O)[O-])cc1C(=O)Nc1ccccc1F", "IC50": "> 79 µM (inactive)"}, {"smiles": "C=CCOC(=O)C1=C[C@H](c2cn(C(C)=O)c3ccccc23)C[C@H](OCc2ccc(CO)cc2)O1", "IC50": "> 79 µM (inactive)"}, {"smiles": "COc1ccc(C(C(=O)NC2CCCC2)N(C(=O)c2snc(C(N)=O)c2N)c2cccc(O)c2)cc1", "note": "(stereo not drawn)", "IC50": "23.9 µM (inactive)"}, {"smiles": "COc1ccccc1CN(C(=O)CNC(=O)c1ccco1)C(C(=O)NCC1CCCO1)c1ccccc1", "note": "(stereo not drawn)", "IC50": "> 79 µM (inactive)"}, {"smiles": "O=C(c1ccc(-c2nc3ccccc3s2)o1)N1CCN(c2ccccc2O)CC1", "IC50": "> 79 µM (inactive)"}, {"smiles": "C=CCn1cnc2c(c1=O)c1nc3ccccc3nc1n2/N=C/c1cc(OC)c(OC)c(OC)c1", "IC50": "> 79 µM (inactive)"}, {"smiles": "CCn1c(O)c(/C=N/N=C/c2ccccc2)c2ccc(C3=NNC(=O)CC3)cc21", "IC50": "> 79 µM (inactive)"}, {"smiles": "COc1cc(-c2cc(NC=O)c3ncc(-c4ccc(C(C)=O)cc4)n3c2)cc(OC)c1OC", "IC50": "4.1 µM"}, {"smiles": "O=C(N/N=C/c1ccccn1)c1cc(-c2cccc3ccccc23)n[nH]1", "IC50": "> 79 µM (inactive)"}, {"smiles": "O=C(CN(c1ccc2c(c1)OCCO2)S(=O)(=O)c1ccccc1)Nc1ccc2c(c1)OCO2", "IC50": "> 79 µM (inactive)"}, {"smiles": "COc1cc(C(=O)Nc2nc(-c3cccs3)cs2)cc(OC)c1OC", "IC50": "> 79 µM (inactive)"}, {"smiles": "O=C(CNC(=O)c1nc[nH]c1C(=O)NCC(=O)OCc1ccccc1)OCc1ccccc1", "IC50": "> 79 µM (inactive)"}, {"smiles": "CC(C)(C)NC(=O)c1cc(NC(=O)c2cccs2)cc(NC(=O)c2cccs2)c1", "IC50": "> 79 µM (inactive)"}, {"smiles": "C=CC[C@@H](CC(=O)NCCO)C(=O)NC[C@H](OC(=O)[C@@H](CC=C)Cc1ccc(F)cc1)c1ccccc1", "IC50": "> 79 µM (inactive)"}, {"smiles": "NC(=O)c1nsc(C(=O)N(c2ccccc2F)C(C(=O)NCc2ccccc2)c2ccc(O)cc2)c1N", "note": "(stereo not drawn)", "IC50": "15.8 µM"}, {"smiles": "CCOc1ncccc1C(=O)Nc1cccc(-c2nc3cccnc3s2)c1", "IC50": "> 79 µM (inactive)"}, {"smiles": "CC1Nc2ncnc(N3CCN(c4ccccc4)CC3)c2N(Cc2ccc(Cl)cc2)C1=O", "note": "(stereo not drawn)", "IC50": "> 79 µM (inactive)"}, {"smiles": "COc1cc(NC(=O)c2ccco2)c(OC)cc1NC(=O)c1cc(OC)c(OC)c(OC)c1", "IC50": "21 µM (inactive)"}, {"smiles": "O=CNc1cc(-c2ccc(C(=O)NC3CC3)cc2)cn2c(-c3ccccc3)cnc12", "IC50": "> 79 µM (inactive)"}, {"smiles": "COc1ccc(CCNc2nc(-c3cccnc3)nc3ccccc23)cc1OC", "IC50": "> 79 µM (inactive)"}, {"smiles": "CCOc1ccc2nc(NC(=O)CN3CCC(n4nnc5cc(F)ccc54)CC3)sc2c1", "IC50": "> 79 µM (inactive)"}, {"smiles": "CCOC(=O)C1CCN(c2cc3c(cc2NC(=O)c2ccccc2)n(C)c(=O)n3C)CC1", "IC50": "> 79 µM (inactive)"}, {"smiles": "COc1cccc(C(=O)Nc2c(C(N)=O)oc3ccccc23)c1", "IC50": "27.6 µM (inactive)"}, {"smiles": "COc1ccc(CCNC(=O)C(=O)NCC2CCCN2S(=O)(=O)c2ccccc2)cc1OC", "note": "(stereo not drawn)", "IC50": "> 79 µM (inactive)"}, {"smiles": "COc1cc(C(=O)N/N=C/c2sc(N3CCOCC3)nc2-c2ccccc2)cc(OC)c1OC", "IC50": "48.4 µM (inactive)"}, {"smiles": "COc1ccc(-c2nn(-c3ccccc3)cc2C(=O)Nc2nccs2)cc1", "IC50": "13.7 µM"}, {"smiles": "COc1cccc(Nc2nc(-c3sc(NC(=O)c4ccco4)nc3C)cs2)c1", "IC50": "26.4 µM (inactive)"}, {"smiles": "COc1cccc(-c2cnc3c(NC=O)cc(-c4cccc(NC(C)=O)c4)cn23)c1", "IC50": "> 79 µM (inactive)"}, {"smiles": "COc1ccc(-n2cc(-c3ccccc3)c3c(N4CCOCC4)ncnc32)cc1", "IC50": "> 79 µM (inactive)"}, {"smiles": "COc1ccc(C(=O)O/N=C(/c2ccccc2)c2ccncc2)cc1OC", "IC50": "> 79 µM (inactive)"}, {"smiles": "COc1cc(-c2cc(C(=O)OCC(=O)NC3CC3)c3ccccc3n2)cc(OC)c1OC", "IC50": "12.7 µM"}, {"smiles": "CCOc1cc(-c2cc(-c3ccc(N)cc3)nc(N)c2C#N)ccc1O", "IC50": "> 79 µM (inactive)"}, {"smiles": "COc1ccc(OC)c(/C=N/NC(=O)c2cc3c(OC)c(OC)ccc3[nH]2)c1", "IC50": "1.82 µM"}, {"smiles": "O=C(CCCN1C(=O)c2cccc3cccc(c23)C1=O)N1CCN(c2ccccc2O)CC1", "IC50": "7.51 µM"}, {"smiles": "CC(C)(C)OC(=O)CNC(=O)c1[nH]cnc1C(=O)NCC(=O)OCc1ccccc1", "IC50": "28.2 µM (inactive)"}, {"smiles": "COc1ccc(-c2cc(NC(C)=O)c3ncc(-c4cccc(C(C)=O)c4)n3c2)cc1OC", "IC50": "> 79 µM (inactive)"}, {"smiles": "NC(=O)COc1ccc2oc(=O)cc(-c3cc4ccccc4o3)c2c1", "IC50": "18.3 µM"}, {"smiles": "O=C(c1cc(=O)[nH]c2ccccc12)N1CCN(S(=O)(=O)c2ccc(Cl)cc2)CC1", "IC50": "> 79 µM (inactive)"}, {"smiles": "COc1cccc(CN(C)C(=O)C(Cc2ccccc2)NC(=O)c2ccccc2)c1OC", "note": "(stereo not drawn)", "IC50": "> 79 µM (inactive)"}, {"smiles": "COc1ccc(-c2cnc3c(NC=O)cc(-c4cccc(NS(C)(=O)=O)c4)cn23)cc1OC", "IC50": "6.15 µM"}, {"smiles": "COc1cc(/C=N/NC(=O)NC23CC4CC(CC(C4)C2)C3)ccc1OCC(N)=O", "IC50": "48.3 µM (inactive)"}, {"smiles": "O=C(Nc1cc(S(=O)(=O)N2CCOCC2)ccc1N1CCCCC1)c1cc(-c2ccccn2)nc2ccccc12", "IC50": "3.6 µM"}, {"smiles": "Cc1nc(N2CCN(c3ccccn3)CC2)c2c(C)c(C(=O)Nc3ccc(F)cc3)sc2n1", "IC50": "> 79 µM (inactive)"}, {"smiles": "COc1ccc(COc2cc(-c3cccc(OC)c3)nc3ccc(NC(=O)c4cccnc4)cc23)cc1", "IC50": "4.53 µM"}, {"smiles": "COc1cc(-c2cc(C(=O)Nc3cccc(C(C)=O)c3)c3ccccc3n2)cc(OC)c1OC", "IC50": "3.99 µM"}, {"smiles": "Cc1ccc(NC(=O)c2nc[nH]c2C(=O)NCCCNC(=O)c2[nH]cnc2C(=O)Nc2ccc(C)cc2)cc1", "IC50": "> 79 µM (inactive)"}, {"smiles": "O=C(Nc1ccccc1)c1nc[nH]c1C(=O)NCCCCCCNC(=O)c1[nH]cnc1C(=O)Nc1ccccc1", "IC50": "3.45 µM"}, {"smiles": "CC(=O)c1ccc(-c2cnc3c(NC=O)cc(-c4ccc(C(=O)NC5CC5)cc4)cn23)cc1", "IC50": "> 79 µM (inactive)"}, {"smiles": "CNC(=O)c1ccc(-c2sc3nc(N4CCOCC4)c4c(c3c2N)CC(C)(C)OC4)o1", "IC50": "1.84 µM"}, {"smiles": "CC(C)(C)OC(=O)C[C@@H]1C/C=C\\C[C@@H](CC(=O)N[C@@H](CO)Cc2ccccc2)C(=O)NC[C@@H](c2ccccc2)OC1=O", "IC50": "> 79 µM (inactive)"}]}]}
